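A five-concentration, 48-hour dose response in 96-well plates underlies each endpoint, interpolated linearly between surrounding concentrations. Abbreviation: GI50, concentration required for 50% inhibition of growth.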 Calls of active or inactive are those of the source. Rule as the data show it: active = GI50 up to about 1.1 µM and inactive = higher.
What was measured:
Assay in all cases: NCI-60 cell line screen, 48 h
[1] = tested on: NCI-H460
[2] = tested on: SF-539
[3] = tested on: TK-10
[4] = tested on: SNB-19
[5] = tested on: DMS-273
[6] = tested on: HOP-62
[7] = tested on: HT-29
[8] = tested on: UO-31
[9] = tested on: OVCAR-4
[10] = tested on: UACC-62
[11] = tested on: OVCAR-8
[12] = tested on: U-251
[13] = tested on: UACC-257
[14] = tested on: HL-60
[15] = tested on: A498
[16] = tested on: SN12C
[17] = tested on: OVCAR-5

Measured: GI50

O=C1Nc2ccccc2C12CCCC2
inactive: [1] > 100 µM | [2] 4.24 µM | [3] > 100 µM | [4] > 100 µM | [5] > 100 µM | [6] > 100 µM | [7] > 100 µM | [8] > 100 µM | [9] > 100 µM | [10] > 100 µM | [11] > 100 µM | [12] > 100 µM | [13] > 100 µM | [14] > 100 µM | [15] > 100 µM | [16] > 100 µM

O=C(/C=C\c1ccc(Cl)c(Cl)c1)c1ccc(Cl)cc1Cl
inactive: [1] 23.3 µM | [2] 20 µM | [3] > 10 µM | [4] 12.4 µM | [5] 10.4 µM | [6] > 10 µM | [7] 16.8 µM | [8] > 10 µM | [9] 24.4 µM | [10] 18.5 µM | [11] 19.1 µM | [12] 11.9 µM | [13] 19.9 µM | [14] 4.73 µM | [15] > 10 µM | [17] > 10 µM | [16] 24.9 µM

COc1ccc2nccc(C3OC(=O)N4CCC(=O)CC34)c2c1 (stereo unspecified)
inactive: [1] > 100 µM | [2] > 100 µM | [3] > 100 µM | [4] > 100 µM | [5] > 10 µM | [6] > 100 µM | [7] > 100 µM | [8] > 100 µM | [9] > 100 µM | [10] > 100 µM | [11] > 100 µM | [12] > 100 µM | [13] > 100 µM | [14] > 100 µM | [15] > 100 µM | [17] > 100 µM | [16] > 100 µM

Cc1c(Cl)cccc1NC(=O)c1cccc([N+](=O)[O-])c1O
inactive: [1] 8.81 µM | [2] 15.7 µM | [3] 41.8 µM | [4] 8.55 µM | [5] 12.4 µM | [6] 9.29 µM | [7] 12.9 µM | [8] 10.5 µM | [9] 9.79 µM | [10] 2.18 µM | [11] 21 µM | [12] 9.44 µM | [13] 8.51 µM | [14] 8.39 µM | [15] 14.2 µM | [17] > 43 µM | [16] 14 µM

CC1=C(C(=O)Nc2ccccc2C)C(/C=C/c2ccccc2)C(C(=O)Nc2ccccc2C)=C(C)N1
inactive: [1] > 100 µM | [2] > 100 µM | [3] > 100 µM | [4] > 100 µM | [5] > 100 µM | [6] > 100 µM | [7] > 100 µM | [8] 34.8 µM | [9] 96.4 µM | [10] > 100 µM | [11] > 100 µM | [12] 85.1 µM | [13] > 100 µM | [14] 72.3 µM | [15] 37.8 µM | [17] > 100 µM | [16] > 100 µM

O=C(O)/C(=C/c1ccccc1[N+](=O)[O-])c1cccs1
inactive: [1] > 100 µM | [2] > 100 µM | [3] > 100 µM | [4] > 100 µM | [5] > 100 µM | [6] > 100 µM | [7] > 100 µM | [8] > 100 µM | [9] > 100 µM | [10] > 100 µM | [11] > 100 µM | [12] > 100 µM | [13] > 100 µM | [14] > 100 µM | [15] > 100 µM | [17] > 100 µM | [16] > 100 µM

CC(C)(C)N1CC2(CCCCC2)C1=O
inactive: [1] > 100 µM | [2] > 100 µM | [3] > 100 µM | [4] > 100 µM | [5] > 100 µM | [6] > 100 µM | [7] > 100 µM | [8] > 100 µM | [9] > 100 µM | [10] > 100 µM | [11] > 100 µM | [12] > 100 µM | [13] > 100 µM | [14] > 100 µM | [15] > 100 µM | [17] > 100 µM | [16] > 100 µM

COc1cc(C2C(Cl)C(=O)N2NC(=O)c2ccc(N)cc2)cc(Br)c1O (stereo unspecified)
inactive: [1] 16.6 µM | [2] 19.5 µM | [3] 18.5 µM | [4] 11.7 µM | [5] 18 µM | [6] 15.1 µM | [7] 19.8 µM | [8] 17.8 µM | [9] 14.8 µM | [10] 14 µM | [11] 28.4 µM | [12] 3.31 µM | [13] 19 µM | [14] 8.75 µM | [15] 37.2 µM | [17] 19.4 µM | [16] 17 µM

Cc1cn(C2CC(O)C(CO)O2)c(=O)n2nnnc12 (stereo unspecified)
inactive: [1] > 100 µM | [2] > 100 µM | [3] > 100 µM | [4] > 100 µM | [5] > 100 µM | [6] > 100 µM | [7] > 100 µM | [8] > 100 µM | [9] > 100 µM | [10] > 100 µM | [11] > 100 µM | [12] > 100 µM | [13] > 100 µM | [14] > 100 µM | [15] > 100 µM | [17] > 100 µM

Reference: ChEMBL document CHEMBL1201862, “PubChem BioAssay data set” (2004)
